According to ChEMBL document CHEMBL4673219, “Novel 5,6-disubstituted pyrrolo[2,3-d]pyrimidine derivatives as broad spectrum antiproliferative agents: Synthesis, cell based assays, kinase profile and molecular docking study” (Bioorg Med Chem, 2018):
Values joined by “and” are separate entries in the source; they are usually repeats but may differ in a detail not shown here. Equal values may be shown once.

Tests used:
[1] = tested on: MDA-MB-468; experiment: Growth inhibition of human MDA-MB-468 cells assessed as growth percentage at 1 uM incubated for 48 hrs by sulforhodamine B assay relative to control; type: functional; details: read-out: Activity
[2] = tested on: SF-539; experiment: Growth inhibition of human SF-539 cells assessed as growth percentage at 10 uM incubated for 48 hrs by sulforhodamine B assay relative to control; type: functional; details: read-out: Activity
[3] = tested on: KM12; experiment: Growth inhibition of human KM12 cells incubated for 48 hrs by sulforhodamine B assay; type: functional
[4] = tested on: 786-0; experiment: Growth inhibition of human 786-0 cells assessed as growth percentage at 1 uM incubated for 48 hrs by sulforhodamine B assay relative to control; type: functional; details: read-out: Activity
[5] = tested on: UACC-257; experiment: Growth inhibition of human UACC-257 cells assessed as growth percentage at 0.1 uM incubated for 48 hrs by sulforhodamine B assay relative to control; type: functional; details: read-out: Activity
[6] = tested on: K562; experiment: Growth inhibition of human K562 cells incubated for 48 hrs by sulforhodamine B assay; type: functional
[7] = tested on: SNB-75; experiment: Growth inhibition of human SNB-75 cells assessed as growth percentage at 1 uM incubated for 48 hrs by sulforhodamine B assay relative to control; type: functional; details: read-out: Activity
[8] = tested on: K562; experiment: Growth inhibition of human K562 cells assessed as growth percentage at 1 uM incubated for 48 hrs by sulforhodamine B assay relative to control; type: functional; details: read-out: Activity
[9] = tested on: HOP-92; experiment: Growth inhibition of human HOP-92 cells incubated for 48 hrs by sulforhodamine B assay; type: functional
[10] = tested on: NCI/ADR-RES; experiment: Growth inhibition of human NCI/ADR-RES cells assessed as growth percentage at 0.01 uM incubated for 48 hrs by sulforhodamine B assay relative to control; type: functional; details: read-out: Activity
[11] = tested on: MDA-MB-231; experiment: Growth inhibition of human MDA-MB-231/ATCC cells assessed as growth percentage at 1 uM incubated for 48 hrs by sulforhodamine B assay relative to control; type: functional; details: read-out: Activity
[12] = tested on: OVCAR-8; experiment: Growth inhibition of human OVCAR-8 cells assessed as growth percentage at 10 uM incubated for 48 hrs by sulforhodamine B assay relative to control; type: functional; details: read-out: Activity
[13] = tested on: U-251; experiment: Growth inhibition of human U-251 cells incubated for 48 hrs by sulforhodamine B assay; type: functional; details: for CC50: read-out: LC50 (the source's name)
[14] = tested on: BT-549; experiment: Growth inhibition of human BT-549 cells assessed as growth percentage at 0.01 uM incubated for 48 hrs by sulforhodamine B assay relative to control; type: functional; details: read-out: Activity
[15] = tested on: SK-MEL-2; experiment: Growth inhibition of human SK-MEL-2 cells incubated for 48 hrs by sulforhodamine B assay; type: functional
[16] = Cytotoxicity against human HFF-1 cells assessed as cell growth inhibition at 10 uM by MTT assay relative to control; type: cell-based; details: read-out: GI
[17] = tested on: SK-BR-3; experiment: Antiproliferative activity against human SK-BR-3 cells assessed as cell growth inhibition at 10 uM measured after 72 hrs by MTT assay relative to control; type: functional; details: read-out: GI
[18] = tested on: COLO 205; experiment: Growth inhibition of human COLO 205 cells assessed as growth percentage at 0.01 uM incubated for 48 hrs by sulforhodamine B assay relative to control; type: functional; details: read-out: Activity
[19] = tested on: MCF7; experiment: Growth inhibition of human MCF7 cells assessed as growth percentage at 0.01 uM incubated for 48 hrs by sulforhodamine B assay relative to control; type: functional; details: read-out: Activity
[20] = tested on: DU-145; experiment: Growth inhibition of human DU-145 cells assessed as growth percentage at 10 uM incubated for 48 hrs by sulforhodamine B assay relative to control; type: functional; details: read-out: Activity
[21] = tested on: UACC-257; experiment: Growth inhibition of human UACC-257 cells assessed as growth percentage at 0.01 uM incubated for 48 hrs by sulforhodamine B assay relative to control; type: functional; details: read-out: Activity
[22] = tested on: KM12; experiment: Growth inhibition of human KM12 cells assessed as growth percentage at 10 uM incubated for 48 hrs by sulforhodamine B assay relative to control; type: functional; details: read-out: Activity
[23] = tested on: SF-268; experiment: Growth inhibition of human SF-268 cells assessed as growth percentage at 0.01 uM incubated for 48 hrs by sulforhodamine B assay relative to control; type: functional; details: read-out: Activity
[24] = tested on: CAKI-1; experiment: Growth inhibition of human CAKI-1 cells assessed as growth percentage at 0.01 uM incubated for 48 hrs by sulforhodamine B assay relative to control; type: functional; details: read-out: Activity
[25] = tested on: SR; experiment: Growth inhibition of human SR cells assessed as growth percentage at 0.01 uM incubated for 48 hrs by sulforhodamine B assay relative to control; type: functional; details: read-out: Activity
[26] = tested on: MDA-MB-435; experiment: Growth inhibition of human MDA-MB-435 cells assessed as growth percentage at 0.01 uM incubated for 48 hrs by sulforhodamine B assay relative to control; type: functional; details: read-out: Activity
[27] = tested on: TK-10; experiment: Growth inhibition of human TK-10 cells assessed as growth percentage at 10 uM incubated for 48 hrs by sulforhodamine B assay relative to control; type: functional; details: read-out: Activity
[28] = tested on: U-251; experiment: Growth inhibition of human U-251 cells assessed as growth percentage at 10 uM incubated for 48 hrs by sulforhodamine B assay relative to control; type: functional; details: read-out: Activity
[29] = tested on: HOP-62; experiment: Growth inhibition of human HOP-62 cells assessed as growth percentage at 10 uM incubated for 48 hrs by sulforhodamine B assay relative to control; type: functional; details: read-out: Activity
[30] = tested on: PC-3; experiment: Growth inhibition of human PC-3 cells assessed as growth percentage at 10 uM incubated for 48 hrs by sulforhodamine B assay relative to control; type: functional; details: read-out: Activity
[31] = tested on: OVCAR-4; experiment: Growth inhibition of human OVCAR-4 cells incubated for 48 hrs by sulforhodamine B assay; type: functional
[32] = tested on: M14; experiment: Growth inhibition of human M14 cells assessed as growth percentage at 1 uM incubated for 48 hrs by sulforhodamine B assay relative to control; type: functional; details: read-out: Activity
[33] = tested on: MDA-MB-468; experiment: Growth inhibition of human MDA-MB-468 cells incubated for 48 hrs by sulforhodamine B assay; type: functional
[34] = tested on: SF-268; experiment: Growth inhibition of human SF-268 cells incubated for 48 hrs by sulforhodamine B assay; type: functional
[35] = tested on: T47D; experiment: Growth inhibition of human T47D cells assessed as growth percentage at 10 uM incubated for 48 hrs by sulforhodamine B assay relative to control; type: functional; details: read-out: Activity
[36] = tested on: IGROV-1; experiment: Growth inhibition of human IGROV-1 assessed as growth percent at 100 uM incubated for 48 hrs by sulforhodamine B assay relative to control; type: functional; details: read-out: Activity
[37] = tested on: TK-10; experiment: Growth inhibition of human TK-10 cells assessed as growth percentage at 0.1 uM incubated for 48 hrs by sulforhodamine B assay relative to control; type: functional; details: read-out: Activity
[38] = tested on: HOP-62; experiment: Growth inhibition of human HOP-62 cells assessed as growth percentage at 1 uM incubated for 48 hrs by sulforhodamine B assay relative to control; type: functional; details: read-out: Activity

CCCCCCCC(=O)Nc1nc2[nH]c(CN3CCN(Cc4cccc(F)c4)CC3)c(CN3CCN(Cc4cccc(F)c4)CC3)c2c(=O)[nH]1
growth at 1 µM [1]: 29%
growth at 10 µM [2]: -96.9%
GI50 ([3]; 48 h): 0.72 µM
TGI ([3]; Homo sapiens, KM12): 2.38 µM
GI50 ([3]; Homo sapiens, KM12, 48 h): 0.719 µM
growth at 1 µM [4]: 83%
growth at 0.1 µM [5]: 94%
GI50 ([6]; 48 h): 0.21 µM
LC50 (concentration killing 50% of cells) ([6]; 48 h): > 100 µM
TGI ([6]; 48 h): 0.55 µM
GI50 ([6]; Homo sapiens, K562, 48 h): 0.205 µM
LC50 (concentration killing 50% of cells) ([6]; Homo sapiens, K562, 48 h): 100 µM
TGI ([6]; Homo sapiens, K562, 48 h): 0.545 µM
growth at 1 µM [7]: 71%
growth at 1 µM [8]: -31%
TGI ([9]; 48 h): 2.42 µM and 0.82 µM
GI50 ([9]; Homo sapiens, HOP-92): 1.14 µM
LC50 ([9]; Homo sapiens, HOP-92): 5.14 µM
growth at 0.01 µM [10]: 100%
growth at 1 µM [11]: 33%
growth at 10 µM [12]: -77.7%
GI50 ([13]; 48 h): 0.17 µM
TGI ([13]; 48 h): 0.33 µM
CC50 ([13]; 48 h): 0.61 µM
GI50 ([13]; Homo sapiens, U-251, 48 h): 0.172 µM
TGI ([13]; Homo sapiens, U-251, 48 h): 0.325 µM
CC50 ([13]; Homo sapiens, U-251, 48 h): 0.614 µM
growth at 0.01 µM [14]: 110%
GI50 ([15]; 48 h): 1.57 µM
TGI ([15]; 48 h): 3.03 µM
GI50 ([15]; Homo sapiens, SK-MEL-2, 48 h): 2.21 µM
TGI ([15]; Homo sapiens, SK-MEL-2, 48 h): 4.12 µM
CC50 ([15]; Homo sapiens, SK-MEL-2, read-out: LC50 (the source's name)): 5.87 µM
inhibition at 10 µM [16]: 14.1%
inhibition of growth at 10 µM [17]: 93.1%
growth at 0.01 µM [18]: 92%
growth at 0.01 µM [19]: 91%
growth at 10 µM [20]: -74.7%
growth at 0.01 µM [21]: 89%
growth at 10 µM [22]: -88.9%
growth at 0.01 µM [23]: 99%
growth at 0.01 µM [24]: 92%
growth at 0.01 µM [25]: 92%
growth at 0.01 µM [26]: 99%
growth at 10 µM [27]: -65%
growth at 10 µM [28]: -92.7%
growth at 10 µM [29]: -93.2%
growth at 10 µM [30]: -95.1%
GI50 [31]: 1.21 µM
TGI [31]: 2.54 µM
CC50 ([31]; read-out: LC50 (the source's name)): 5.31 µM
growth at 1 µM [32]: -47%
GI50 ([33]; 48 h): 0.48 µM
LC50 (concentration killing 50% of cells) ([33]; Homo sapiens, MDA-MB-468): 5.31 µM
TGI ([33]; Homo sapiens, MDA-MB-468): 1.84 µM
GI50 ([33]; Homo sapiens, MDA-MB-468, 48 h): 0.477 µM
GI50 [34]: 1.26 µM
LC50 [34]: 5.73 µM
TGI [34]: 2.68 µM
growth at 10 µM [35]: -84.2%
growth at 100 µM [36]: -70%
growth at 0.1 µM [37]: 96%
growth at 1 µM [38]: 75%
